From PMC5384871 (British journal of haematology, 2017)

Tests used:
Assay in all cases: biochemical kinase assay at […] ATP
Conditions in all cases: read-out: NDI-031301
JAK2 = JAK2 (Homo sapiens, UniProt O60674)
JAK3 = molecular target: T1, JAK3 (Homo sapiens, UniProt P52333)
T1 sequence (P52333 1-1124): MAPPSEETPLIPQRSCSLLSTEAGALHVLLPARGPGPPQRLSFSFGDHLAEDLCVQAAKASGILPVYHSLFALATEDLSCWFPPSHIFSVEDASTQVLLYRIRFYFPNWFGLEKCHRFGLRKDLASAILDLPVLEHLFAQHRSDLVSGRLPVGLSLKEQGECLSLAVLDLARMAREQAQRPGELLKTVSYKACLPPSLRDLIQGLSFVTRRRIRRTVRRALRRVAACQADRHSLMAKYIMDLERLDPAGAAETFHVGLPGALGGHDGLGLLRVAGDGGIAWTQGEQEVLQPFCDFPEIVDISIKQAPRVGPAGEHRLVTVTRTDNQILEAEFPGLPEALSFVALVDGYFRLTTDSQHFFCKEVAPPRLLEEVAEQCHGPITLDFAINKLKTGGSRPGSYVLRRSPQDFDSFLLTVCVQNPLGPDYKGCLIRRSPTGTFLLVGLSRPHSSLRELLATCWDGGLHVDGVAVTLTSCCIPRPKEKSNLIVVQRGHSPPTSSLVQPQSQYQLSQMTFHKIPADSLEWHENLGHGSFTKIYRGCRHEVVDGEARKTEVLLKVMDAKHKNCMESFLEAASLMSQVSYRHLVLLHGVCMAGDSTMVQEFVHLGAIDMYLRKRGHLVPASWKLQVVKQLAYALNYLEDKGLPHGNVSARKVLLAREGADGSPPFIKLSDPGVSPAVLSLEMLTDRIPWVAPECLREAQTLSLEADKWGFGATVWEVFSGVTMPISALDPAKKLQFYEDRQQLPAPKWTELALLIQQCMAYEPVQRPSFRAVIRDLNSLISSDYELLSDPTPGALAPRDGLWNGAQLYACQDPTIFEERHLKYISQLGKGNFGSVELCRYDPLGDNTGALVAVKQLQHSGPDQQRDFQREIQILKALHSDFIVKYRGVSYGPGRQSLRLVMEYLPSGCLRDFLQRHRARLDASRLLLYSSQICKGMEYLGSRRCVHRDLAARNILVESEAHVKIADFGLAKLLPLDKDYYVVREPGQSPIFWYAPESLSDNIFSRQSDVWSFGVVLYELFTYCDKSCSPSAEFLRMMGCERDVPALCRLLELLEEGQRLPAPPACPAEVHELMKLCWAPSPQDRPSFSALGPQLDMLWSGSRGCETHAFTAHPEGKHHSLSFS

TYK2 = TYK2 (Homo sapiens, UniProt P29597)
Chain of TYK2 (P29597 whole entry): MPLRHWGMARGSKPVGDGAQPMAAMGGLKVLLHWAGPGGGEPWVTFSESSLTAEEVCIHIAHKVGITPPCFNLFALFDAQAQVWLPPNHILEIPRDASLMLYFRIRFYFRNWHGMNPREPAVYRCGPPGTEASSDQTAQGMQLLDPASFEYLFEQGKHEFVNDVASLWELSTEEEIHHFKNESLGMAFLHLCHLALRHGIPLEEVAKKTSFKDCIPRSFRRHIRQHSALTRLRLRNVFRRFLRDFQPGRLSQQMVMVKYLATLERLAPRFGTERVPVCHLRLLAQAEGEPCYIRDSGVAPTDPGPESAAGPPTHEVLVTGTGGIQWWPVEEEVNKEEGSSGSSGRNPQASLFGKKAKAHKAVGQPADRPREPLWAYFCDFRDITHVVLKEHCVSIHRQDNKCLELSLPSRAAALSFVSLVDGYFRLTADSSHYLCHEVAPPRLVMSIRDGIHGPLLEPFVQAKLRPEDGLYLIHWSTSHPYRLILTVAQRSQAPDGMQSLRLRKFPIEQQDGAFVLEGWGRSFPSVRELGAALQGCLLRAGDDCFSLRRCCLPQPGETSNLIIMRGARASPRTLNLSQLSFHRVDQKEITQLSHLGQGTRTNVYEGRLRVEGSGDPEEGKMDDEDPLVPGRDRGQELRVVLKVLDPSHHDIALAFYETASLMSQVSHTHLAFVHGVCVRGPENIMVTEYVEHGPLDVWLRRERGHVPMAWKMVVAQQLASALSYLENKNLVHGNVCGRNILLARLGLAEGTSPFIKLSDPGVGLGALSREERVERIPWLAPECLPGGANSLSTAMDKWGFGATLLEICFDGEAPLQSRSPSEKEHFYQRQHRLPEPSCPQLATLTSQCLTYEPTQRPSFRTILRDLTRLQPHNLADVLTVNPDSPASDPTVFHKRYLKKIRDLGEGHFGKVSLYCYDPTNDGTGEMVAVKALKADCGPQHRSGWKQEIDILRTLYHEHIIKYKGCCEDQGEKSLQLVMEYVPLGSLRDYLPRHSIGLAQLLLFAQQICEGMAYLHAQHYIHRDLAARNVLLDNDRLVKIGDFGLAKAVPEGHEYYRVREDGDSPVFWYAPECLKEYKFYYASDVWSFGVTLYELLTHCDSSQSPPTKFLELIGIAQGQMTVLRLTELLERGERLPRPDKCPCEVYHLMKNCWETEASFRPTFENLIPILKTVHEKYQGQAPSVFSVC

JAK1 = JAK1 (Homo sapiens, UniProt P23458)
Chain of JAK1 (P23458 whole entry): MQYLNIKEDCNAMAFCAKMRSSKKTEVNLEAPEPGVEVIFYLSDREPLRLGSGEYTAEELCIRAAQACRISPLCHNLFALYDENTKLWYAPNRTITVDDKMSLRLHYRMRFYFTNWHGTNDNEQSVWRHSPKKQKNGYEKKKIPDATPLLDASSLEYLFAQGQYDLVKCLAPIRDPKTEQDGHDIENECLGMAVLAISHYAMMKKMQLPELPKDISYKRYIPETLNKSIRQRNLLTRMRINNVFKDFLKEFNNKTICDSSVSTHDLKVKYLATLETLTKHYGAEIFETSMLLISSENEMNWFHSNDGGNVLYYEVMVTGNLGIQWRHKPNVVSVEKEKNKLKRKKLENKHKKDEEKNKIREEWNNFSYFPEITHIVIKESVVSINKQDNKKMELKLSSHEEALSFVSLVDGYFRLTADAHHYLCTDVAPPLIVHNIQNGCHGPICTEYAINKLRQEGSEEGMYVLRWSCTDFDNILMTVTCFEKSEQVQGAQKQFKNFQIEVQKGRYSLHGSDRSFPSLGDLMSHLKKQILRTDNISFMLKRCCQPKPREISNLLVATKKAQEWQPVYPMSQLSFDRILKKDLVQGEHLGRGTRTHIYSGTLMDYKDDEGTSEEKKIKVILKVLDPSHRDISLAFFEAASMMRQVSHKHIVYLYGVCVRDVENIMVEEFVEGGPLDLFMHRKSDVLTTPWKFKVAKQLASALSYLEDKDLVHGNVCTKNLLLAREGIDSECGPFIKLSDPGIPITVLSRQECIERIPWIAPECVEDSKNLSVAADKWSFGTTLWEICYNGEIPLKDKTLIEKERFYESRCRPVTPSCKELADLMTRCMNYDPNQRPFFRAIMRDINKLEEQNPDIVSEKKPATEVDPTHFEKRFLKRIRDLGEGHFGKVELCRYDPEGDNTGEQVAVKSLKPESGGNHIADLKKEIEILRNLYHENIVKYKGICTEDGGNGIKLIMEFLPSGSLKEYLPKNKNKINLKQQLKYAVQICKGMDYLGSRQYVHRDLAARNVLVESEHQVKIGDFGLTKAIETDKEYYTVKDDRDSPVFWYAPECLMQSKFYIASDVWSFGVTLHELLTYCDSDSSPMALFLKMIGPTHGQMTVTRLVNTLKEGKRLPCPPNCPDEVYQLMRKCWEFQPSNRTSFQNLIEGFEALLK

Chain of JAK2 (O60674 whole entry): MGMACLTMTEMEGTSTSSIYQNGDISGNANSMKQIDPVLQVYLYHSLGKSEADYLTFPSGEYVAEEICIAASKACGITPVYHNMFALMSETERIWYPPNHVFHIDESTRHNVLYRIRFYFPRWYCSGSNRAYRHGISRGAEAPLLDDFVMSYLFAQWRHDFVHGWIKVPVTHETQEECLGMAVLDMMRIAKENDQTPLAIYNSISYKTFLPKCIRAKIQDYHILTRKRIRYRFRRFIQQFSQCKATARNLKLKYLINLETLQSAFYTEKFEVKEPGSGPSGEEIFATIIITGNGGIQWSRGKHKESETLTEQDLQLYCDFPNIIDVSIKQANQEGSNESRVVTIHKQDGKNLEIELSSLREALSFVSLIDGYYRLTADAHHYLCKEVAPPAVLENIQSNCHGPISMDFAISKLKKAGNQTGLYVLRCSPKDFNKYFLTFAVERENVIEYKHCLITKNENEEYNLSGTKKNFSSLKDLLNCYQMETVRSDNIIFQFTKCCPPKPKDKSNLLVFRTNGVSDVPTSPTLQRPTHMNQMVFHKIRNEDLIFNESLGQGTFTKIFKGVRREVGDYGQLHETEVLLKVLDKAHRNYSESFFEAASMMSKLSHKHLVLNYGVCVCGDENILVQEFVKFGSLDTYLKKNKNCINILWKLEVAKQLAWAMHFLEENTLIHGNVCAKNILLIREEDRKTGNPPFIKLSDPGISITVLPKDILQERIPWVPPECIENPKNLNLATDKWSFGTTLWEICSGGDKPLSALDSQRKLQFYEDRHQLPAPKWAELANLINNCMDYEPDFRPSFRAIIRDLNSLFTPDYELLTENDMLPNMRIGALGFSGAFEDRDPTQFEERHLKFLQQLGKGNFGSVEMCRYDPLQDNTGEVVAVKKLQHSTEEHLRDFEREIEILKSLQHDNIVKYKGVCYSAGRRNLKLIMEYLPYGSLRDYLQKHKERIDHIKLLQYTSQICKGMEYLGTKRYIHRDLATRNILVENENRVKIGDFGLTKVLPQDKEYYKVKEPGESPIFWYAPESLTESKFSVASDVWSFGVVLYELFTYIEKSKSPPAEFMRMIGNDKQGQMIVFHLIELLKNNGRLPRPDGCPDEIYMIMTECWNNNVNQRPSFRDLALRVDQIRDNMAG

Ki (JAK2): 2750 nM
Ki (JAK3): 2480 nM
Ki (TYK2): 130 nM
Ki (JAK1): 2200 nM
Substance: NDI-031301
